Reference: US8299021B2, “Macrocyclic inhibitors of hepatitis C virus replication” (InterMune, Inc., priority 2005, dated 2012)
Where two headings read alike, the source gives them in different places.

Tested on: HCV sub-genomic replicon GS4.3 (HuH-7 hepatoma cells)
Assay: Quantitation by ELISA of neomycin phosphotransferase II (NPTII) in the HCV sub-genomic replicon, GS4.3
Type: cell-based
Settings: Hepatitis C virus, read-out: Replicon EC50
Description: Quantitation by ELISA of the Selectable Marker Protein, Neomycin Phosphotransferase II (NPTII) in the HCV Sub-Genomic Replicon, GS4.3
The HCV sub-genomic replicon (1377/NS3-3′, accession No. AJ242652), stably maintained in HuH-7 hepatoma cells, was created by Lohmann et al. Science 285: 110-113 (1999). The replicon-containing cell culture, designated GS4.3, was obtained from Dr. Christoph Seeger of the Institute for Cancer Research, Fox Chase Cancer Center, Philadelphia, Pa.
GS4.3 cells were maintained at 37° C., 5% CO2, in DMEM (Gibco 11965-092) supplemented with L-glutamine 200 mM (100×) (Gibco25030-081), non-essential amino acids (NEAA)(Biowhittaker 13-114E), heat-inactivated (HI) Fetal Bovine Serum(FBS)(Hyclone SH3007.03) and […] geneticin (G418)(Gibco 10131-035). Cells were sub-divided 1:3 or 4 every 2-3 days.
24 h prior to the assay, GS4.3 cells were collected, counted, and plated in 96-well plates (Costar 3585) at 7500 cells/well in 100 μl standard maintenance medium (above) and incubated in the conditions above. To initiate the assay, culture medium was removed, cells were washed once with PBS (Gibco 10010-023) and 90 μl Assay Medium (DMEM, L-glutamine, NEAA, 10% HI FBS, no G418) was added. Inhibitors were made as a 10× stock in Assay Medium, (3-fold dilutions from 10 μM to […] final concentration, final DMSO concentration 1%), 10 μl were added to duplicate wells, plates were rocked to mix, and incubated as above for 72 h.
An NPTII Elisa kit was obtained from AGDIA, Inc. (Compound direct ELISA test system for Neomycin Phosphotransferase II, PSP 73000/4800). Manufacturer's instructions were followed, with some modifications. 10×PEB-1 lysis buffer was made up to include 500 μM PMSF (Sigma P7626, 50 mM stock in isopropanol). After 72 h incubation, cells were washed once with PBS and 150 μlPEB-1 with PMSF was added per well. Plates were agitated vigorously for 15 minutes, room temperature, then frozen at −70° C. Plates were thawed, lysates were mixed thoroughly, and 100 μl were applied to an NPTII Elisa plate. A standard curve was made. Lysate from DMSO-treated control cells was pooled, serially diluted with PEB-1 with PMSF, and applied to duplicate wells of the ELISA plate, in a range of initial lysate amount of 150 ul-2.5 ul. In addition, 100 μl buffer alone was applied in duplicate as a blank. Plates were sealed and gently agitated at room temperature for 2 h. Following capture incubation, the plates were washed 5×300 μlwith PBS-T (0.5% Tween-20, PBS-T was supplied in the ELISA kit). For detection, a 1× dilution of enzyme conjugate diluent MRS-2 (5×) was made in PBS-T, into which 1:100 dilutions of enzyme conjugates A and B were added, as per instructions. Plates were resealed, and incubated with agitation, covered, room temperature, for 2 h. The washing was then repeated and 100 μlof room temperature TMB substrate was added. After approximately 30 minutes incubation (room temperature, agitation, covered), the reaction was stopped with 50 μl 3M sulfuric acid. Plates were read at 450 nm on a Molecular Devices Versamax plate reader.
Inhibitor effect was expressed as a percentage of DMSO-treated control signal, and inhibition curves were calculated using a 4-parameter equation: y=A+4B-A)/(1+((C/x)^13))), where C is half-maximal activity or EC50.

| Structure (SMILES) | EC50 (Huh-7, 72 h) | EC50 (Huh-7, GS4.3 cells, 72 h) |
| --- | --- | --- |
| N[C@H]1CCCCC/C=C\[C@@H]2C[C@@]2(C(=O)NS(=O)(=O)Nc2ccc(Cl)cc2)NC(=O)[C@@H]2C[C@@H](OC(=O)N3Cc4ccccc4C3)CN2C1=O [Compound 203] | > 10 µM | – |
| CC(C)(C)C(O)C(=O)NC1CCCCCC=CC2CC2(C(=O)NS(=O)(=O)C2CC2)NC(=O)C2CC(OC(=O)N3Cc4cccc(F)c4C3)CN2C1=O (single isomer, unassigned) [Compound 248] | – | < 1 µM |
| Cc1noc(C)c1S(=O)(=O)NC(=O)[C@@]12C[C@H]1/C=C\CCCCC[C@H](NC(=O)OC1CCCC1)C(=O)N1C[C@H](OC(=O)N3CCc4ccccc4C3)C[C@H]1C(=O)N2 [Compound 187] | < 1 µM | – |
| Cc1ccccc1S(=O)(=O)NC(=O)[C@@]12C[C@H]1/C=C\CCCCC[C@H](NC(=O)OC(C)(C)C)C(=O)N1C[C@H](OC(=O)N3Cc4cccc(F)c4C3)CC1C(=O)N2 (some centres unmarked) [Compound 157] | – | < 0.1 µM |
| CN(C)c1ccc(S(=O)(=O)NC(=O)[C@@]23C[C@H]2/C=C\CCCCC[C@H](NC(=O)OC2CCCC2)C(=O)N2C[C@H](OC(=O)N4CCc5ccccc5C4)C[C@H]2C(=O)N3)cc1 [Compound 183] | < 0.1 µM | – |
| C[C@H](NC(=O)O[C@@H]1CC2C(=O)N[C@]3(C(=O)NS(=O)(=O)C4CC4)C[C@H]3/C=C\CCCCC[C@H](NC(=O)OC(C)(C)C)C(=O)N2C1)c1ccc(F)cn1 (some centres unmarked) [Compound 149] | – | > 10 µM |
| CC(C)S(=O)(=O)NC(=O)[C@@]12C[C@H]1/C=C\CCCCC[C@H](NC(=O)OC1CCCC1)C(=O)N1C[C@H](OC(=O)N3CCc4ccccc4C3)C[C@H]1C(=O)N2 [Compound 118] | < 0.1 µM | – |
| O=C(N[C@H]1CCCCC/C=C\[C@@H]2C[C@@]2(C(=O)NS(=O)(=O)C2CC2)NC(=O)C2C[C@@H](OC(=O)N3Cc4ccncc4C3)CN2C1=O)OC1CCCC1 (some centres unmarked) [Compound 155] | – | < 1 µM |
| CN(Cc1ccccc1)C(=O)OC1C[C@H]2C(=O)N[C@]3(C(=O)NS(=O)(=O)C4CC4)C[C@H]3/C=C\CCCCC[C@H](NC(=O)OC(C)(C)C)C(=O)N2C1 (some centres unmarked) [Compound 245] | – | < 1 µM |
| CNc1c(NC(=O)C23C[C@H]2/C=C\CCCCC[C@H](NC(=O)OC(C)(C)C)C(=O)N2C[C@H](OC(=O)N4Cc5cccc(F)c5C4)C[C@H]2C(=O)N3)c(=O)c1=O (some centres unmarked) [Compound 646] | – | > 10 µM |
| O=C1N[C@]2(C(=O)NS(=O)(=O)C3CC3)C[C@H]2/C=C\CCCCC[C@H](Nc2c(N3CCC3)c(=O)c2=O)C(=O)N2CC(OC(=O)N3CCc4ccccc4C3)C[C@@H]12 (some centres unmarked) [Compound 242] | – | < 10 µM |
| O=C1N[C@]2(C(=O)NS(=O)(=O)C3CC3)C[C@H]2/C=C\CCCCC[C@H](NC(=S)NC2CCCC2)C(=O)N2CC(OC(=O)N3Cc4cccc(F)c4C3)C[C@@H]12 (some centres unmarked) [Compound 240] | – | < 1 µM |
| O=C1N[C@]2(C(=O)NS(=O)(=O)C3CC3)C[C@H]2/C=C\CCCCC[C@H](NC(=S)N2CCCC2)C(=O)N2CC(OC(=O)N3Cc4cccc(F)c4C3)C[C@@H]12 (some centres unmarked) [Compound 244] | – | < 0.1 µM |
| N[C@H]1CCCCC/C=C\[C@@H]2C[C@@]2(C(=O)NS(=O)(=O)C2CC2)NC(=O)C2C[C@@H](OC(=O)N3Cc4c(Cl)ccc(Cl)c4C3)CN2C1=O (some centres unmarked) [Compound 156] | – | < 1 µM |
| O=C1N[C@]2(C(=O)NS(=O)(=O)C3CC3)C[C@H]2/C=C\CCCCC[C@H](Nc2c(N3C4CCC3CC4)c(=O)c2=O)C(=O)N2C[C@H](OC(=O)N3Cc4cccc(F)c4C3)C[C@@H]12 [Compound 199] | < 10 µM | – |
| CC(C)(C)OC(=O)N[C@H]1CCC(O)CC/C=C\[C@@H]2C[C@@]2(C(=O)NS(=O)(=O)C2CC2)NC(=O)[C@@H]2C[C@@H](OC(=O)N3Cc4cccc(F)c4C3)CN2C1=O (some centres unmarked) [Compound 1018] | – | < 1 µM |
| O=C1N[C@]2(C(=O)NS(=O)(=O)C3CC3)C[C@H]2/C=C\CCCCC[C@H](NC(=O)N2CCCC2)C(=O)N2CC(OC(=O)N3Cc4cccc(F)c4C3)C[C@@H]12 (some centres unmarked) [Compound 243] | – | < 0.1 µM |
| CC(C)(C)OC(=O)N[C@H]1COCCC/C=C\[C@@H]2C[C@@]2(C(=O)NS(=O)(=O)C2CC2)NC(=O)[C@@H]2C[C@@H](OC(=O)N3Cc4cccc(Cl)c4C3)CN2C1=O [Compound 1025] | – | < 0.1 µM |
| O=C(N[C@H]1CCCCC/C=C\[C@@H]2C[C@@]2(C(=O)O)NC(=O)C2C[C@@H](OC(=O)N3Cc4ccncc4C3)CN2C1=O)OC1CCCC1 (some centres unmarked) [Compound 146] | – | > 10 µM |
| COc1cccc(S(=O)(=O)NC(=O)[C@@]23C[C@H]2/C=C\CCCCC[C@H](NC(=O)OC2CCCC2)C(=O)N2C[C@H](OC(=O)N4CCc5ccccc5C4)C[C@H]2C(=O)N3)c1 [Compound 188] | < 0.1 µM | – |
| CC(C)(C)OC(=O)N[C@H]1CCCCC/C=C\[C@@H]2C[C@@]2(C(=O)O)NC(=O)C2C[C@@H](OC(=O)N3Cc4c(Cl)ccc(Cl)c4C3)CN2C1=O (some centres unmarked) [Compound 144] | – | < 10 µM |
| CC(C)(C)OC(=O)N[C@H]1CCCCC/C=C\[C@@H]2C[C@@]2(C(=O)NS(=O)(=O)C2CC2)NC(=O)C2C[C@@H](OC(=O)N3Cc4c(Cl)ccc(Cl)c4C3)CN2C1=O (some centres unmarked) [Compound 145] | – | < 0.1 µM |
| COc1ccc(S(=O)(=O)NC(=O)[C@@]23C[C@H]2/C=C\CCCCC[C@H](NC(=O)OC2CCCC2)C(=O)N2C[C@H](OC(=O)N4CCc5ccccc5C4)C[C@H]2C(=O)N3)cc1 [Compound 120] | < 0.1 µM | – |
| O=C(N[C@@H]1CCCCC/C=C\[C@@H]2C[C@]2(C(=O)NS(=O)(=O)N2CCC(F)(F)C2)NC(=O)C2C[C@H](OC(=O)N3Cc4ccccc4C3)CN2C1=O)OC1CCCC1 (some centres unmarked) [Compound 227] | – | < 0.1 µM |
| O=C(N[C@H]1CCCCC/C=C\[C@@H]2C[C@@]2(C(=O)NC(=O)C2CC2)NC(=O)C2C[C@@H](OC(=O)N3CCc4ccccc4C3)CN2C1=O)OC1CCCC1 (some centres unmarked) [Compound 706] | – | < 0.1 µM |
| CS(=O)(=O)NC(=O)[C@@]12C[C@H]1/C=C\CCCCC[C@H](NC(=O)OC1CCCC1)C(=O)N1C[C@H](OC(=O)N3CCc4ccccc4C3)C[C@H]1C(=O)N2 [Compound 119] | < 1 µM | – |
